The text below walks through data of US20230026696A1, “TRPV4 RECEPTOR LIGANDS” (UNIVERSITY OF UTAH RESEARCH FOUNDATION, priority 2019, published 2023).

Where a name gives a salt, the structure may show the parent alone.

For test [1], the system named is intraocular pressure (IOP). Kind of test: In vivo tonometric IOP assay in microbead mouse model of ocular hypertension. To be noted: FIG. 2 right panel; P<0.01 / P<0.001, two-way ANOVA. The protocol:
FIG. 1 is a graph showing the effect that two concentrations of topical compound 11 (0.01% and 0.1%), 0.5% timolol, and control PBS had on IOP in the microbead (MB) mouse model of ocular hypertension (N=3 separate experiments, with 7-10 mice per experimental cohort). Error bars=±S.E.M. Ocular hypertension in the mouse model of primary open angle glaucoma (POAG) was induced with intracameral injection of polystyrene microbeads. Antagonist stock solutions (10 mM) were prepared in DMSO, the final concentrations were made in PBS diluted to <0.0001% DMSO.
FIG. 2 is a bar chart showing the cumulative data for pre-IOP elevation cohorts of mouse eyes (N≥3 separate experiments, with 7-10 mice per experimental cohort). Left panel: the IOP data are plotted as % of the control value of the timolol-treated eye cohort. Middle panel: MB injection elevated IOP in all experimental cohorts.
A tonometric assay was used to measured IOP changes in mice models of ocular hypertension over a period of weeks following topical application of the compounds.
To prepare the mice models of ocular hypertension, mice were anesthetized with an intraperitoneal (IP) injection of ketamine/xylazine (90 mg/10 mg/kg of body weight). Eye drops of 0.5% proparacaine hydrochloride with 1% tropicamide ophthalmic solution (Bausch & Lomb) were applied to numb and dilate the eyes of the mice. IOP was elevated in the ipsilateral eye by injecting 2 μl of polystyrene microbeads (7.8 μm FluoSpheres; Bangs Laboratories) with a Hamilton syringe into the anterior chamber over 60 seconds. The contralateral eye was injected with phosphate buffered saline (PBS).
A rebound tonometer was used to measure IOP at 1, 2, 6 and 10 hours post-injection after topical administration of Compounds 11 and 52 and timolol, a known medication for treatment of IOP associated with ocular hypertension and glaucoma. The IOP was determined from the means of 10 to 20 readings, following the protocol described in Ryskamp et al., Sci Rep 6:30583, 2016. […]

The subject of test [2] is intraocular pressure (IOP). Described as above.
Test [3] deals with intraocular pressure (IOP). To be noted: applied at 0.3-1.0 mM; Ryskamp et al., Sci Rep 2016; cited from earlier work.
Another test deals with T1, human TRPV4 (Homo sapiens, UniProt Q9HBA0).
T1 construct: expressed in transfected cells
Kind of test: Fluorometric cell-based Ca2+ flux assay, HEK-293 cells stably overexpressing human TRPV4. To be noted: for IC50: HEK-293 stably overexpressing human TRPV4, agonist GSK1016790A 30 nM. The essentials:
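HEK-293 cells stably overexpressing human TRPV4, Fluo 4-loaded, pre-incubated 30 min at 37° C with compound, then stimulated with 30 nM GSK1016790A (final). Max ΔF/s over 1 min, media-corrected, expressed relative to no-antagonist control; IC50 from ≥8 concentrations, ≥3 replicates.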

In another test the target is T2, human TRPA1 (Homo sapiens, UniProt O75762).
T2 construct: expressed in transfected cells
The test is described as follows: Selectivity Ca2+ flux assay, TRPA1 stably over-expressed in HEK-293 cells. It counts as cell-based. To be noted: agonist 2,4-ditert butylphenol (50 μM). The protocol: (§1) To determine selectivity of the various test compounds for TRPV4, select compounds with activity in the TRPV4 fluorometric cell-based Ca^2+ flux assays were also tested for inhibition of human TRPA1 stably over-expressed in HEK-293 cells, TRPM8 stably over-expressed in HEK-293 cells, TRPV3 stably over-expressed in HEK-293 cells, and TRPV1 stably overexpressed in human lung epithelial (BEAS-2B) cells. The assays were conducted substantially as described above for HEK-293 cells that stably overexpress TRPV4, although for TRPV1, the BEAS-2B cells were maintained in LHC-9 media containing Geneticin (300 μg/mL) and were loaded with Fluo-4AM at room temperature. The agonist for TRPA1 was 2,4-ditert butylphenol (50 μM), for TRPM8 was icilin (50 μM), for TRPV3 was carvacrol (300 μM), and for TRPV1 was nonivamide (5 μM). All other aspects of the assay described above were the same.

The target of a further test is T3, TRPM8 (Homo sapiens, UniProt Q7Z2W7).
T3 construct: expressed in transfected cells
Kind of test: Selectivity Ca2+ flux assay, TRPM8 stably over-expressed in HEK-293 cells. It counts as cell-based. To be noted: agonist icilin (50 μM). The protocol:
as §1

Another test has as its target T4, TRPV3 (Homo sapiens, UniProt Q8NET8).
T4 construct: expressed in transfected cells
T4 sequence (Q8NET8 1-790): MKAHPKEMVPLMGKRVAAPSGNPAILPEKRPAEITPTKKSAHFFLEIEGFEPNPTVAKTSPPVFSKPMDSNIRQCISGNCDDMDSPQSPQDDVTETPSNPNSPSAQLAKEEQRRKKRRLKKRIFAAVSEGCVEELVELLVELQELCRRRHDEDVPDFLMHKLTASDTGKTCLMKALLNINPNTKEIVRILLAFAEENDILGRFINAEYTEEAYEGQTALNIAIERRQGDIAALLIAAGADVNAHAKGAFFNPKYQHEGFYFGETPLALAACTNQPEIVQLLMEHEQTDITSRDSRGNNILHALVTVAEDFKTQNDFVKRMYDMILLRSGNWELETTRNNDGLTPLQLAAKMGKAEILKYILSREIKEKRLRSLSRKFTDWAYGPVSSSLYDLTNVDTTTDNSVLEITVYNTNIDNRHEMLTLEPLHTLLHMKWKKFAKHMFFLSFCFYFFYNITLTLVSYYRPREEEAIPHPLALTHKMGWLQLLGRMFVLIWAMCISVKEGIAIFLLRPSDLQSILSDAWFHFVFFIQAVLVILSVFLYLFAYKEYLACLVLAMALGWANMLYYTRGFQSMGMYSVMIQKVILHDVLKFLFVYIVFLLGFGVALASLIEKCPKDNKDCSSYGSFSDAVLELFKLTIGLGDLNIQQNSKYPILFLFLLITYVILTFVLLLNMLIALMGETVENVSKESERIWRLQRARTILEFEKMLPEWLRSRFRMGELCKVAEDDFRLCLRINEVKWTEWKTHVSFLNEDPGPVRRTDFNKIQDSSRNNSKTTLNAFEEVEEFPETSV
The test is described as follows: Selectivity Ca2+ flux assay, TRPV3 stably over-expressed in HEK-293 cells. The class given is cell-based. To be noted: agonist carvacrol (300 μM). The protocol:
as §1

The target of another test is T5, TRPV1 (Homo sapiens, UniProt Q8NER1).
T5 construct: expressed in transfected cells
Kind of test: Selectivity Ca2+ flux assay, TRPV1 stably overexpressed in human lung epithelial (BEAS-2B) cells. To be noted: agonist nonivamide (5 μM). The class given is cell-based. The protocol:
as §1

Test [4] concerns intraocular pressure (IOP). To be noted: OAG-affected dogs; literature; cited from earlier work.

T1 sequence (Q9HBA0 whole entry): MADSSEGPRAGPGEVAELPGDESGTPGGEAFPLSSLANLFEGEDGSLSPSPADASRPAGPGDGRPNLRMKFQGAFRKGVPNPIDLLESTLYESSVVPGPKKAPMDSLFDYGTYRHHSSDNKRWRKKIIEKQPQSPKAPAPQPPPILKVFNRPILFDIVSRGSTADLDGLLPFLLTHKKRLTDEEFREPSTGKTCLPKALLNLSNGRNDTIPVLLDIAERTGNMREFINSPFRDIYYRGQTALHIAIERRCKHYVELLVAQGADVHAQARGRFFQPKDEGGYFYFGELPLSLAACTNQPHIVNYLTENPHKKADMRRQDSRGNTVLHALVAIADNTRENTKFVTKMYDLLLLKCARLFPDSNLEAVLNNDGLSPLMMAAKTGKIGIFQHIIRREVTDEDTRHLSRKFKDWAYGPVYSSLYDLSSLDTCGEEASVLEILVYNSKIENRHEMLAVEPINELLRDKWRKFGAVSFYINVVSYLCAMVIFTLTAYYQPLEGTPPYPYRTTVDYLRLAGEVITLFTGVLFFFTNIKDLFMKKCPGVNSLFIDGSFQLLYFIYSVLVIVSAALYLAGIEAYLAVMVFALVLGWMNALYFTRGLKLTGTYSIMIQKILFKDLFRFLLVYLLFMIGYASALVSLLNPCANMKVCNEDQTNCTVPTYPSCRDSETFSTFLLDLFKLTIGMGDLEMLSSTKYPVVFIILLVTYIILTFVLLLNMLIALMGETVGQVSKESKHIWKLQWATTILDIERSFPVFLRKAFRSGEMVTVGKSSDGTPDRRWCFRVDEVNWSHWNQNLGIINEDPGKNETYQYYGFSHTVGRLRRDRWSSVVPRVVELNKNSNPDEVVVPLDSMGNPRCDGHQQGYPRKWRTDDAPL
T2 sequence (O75762 whole entry): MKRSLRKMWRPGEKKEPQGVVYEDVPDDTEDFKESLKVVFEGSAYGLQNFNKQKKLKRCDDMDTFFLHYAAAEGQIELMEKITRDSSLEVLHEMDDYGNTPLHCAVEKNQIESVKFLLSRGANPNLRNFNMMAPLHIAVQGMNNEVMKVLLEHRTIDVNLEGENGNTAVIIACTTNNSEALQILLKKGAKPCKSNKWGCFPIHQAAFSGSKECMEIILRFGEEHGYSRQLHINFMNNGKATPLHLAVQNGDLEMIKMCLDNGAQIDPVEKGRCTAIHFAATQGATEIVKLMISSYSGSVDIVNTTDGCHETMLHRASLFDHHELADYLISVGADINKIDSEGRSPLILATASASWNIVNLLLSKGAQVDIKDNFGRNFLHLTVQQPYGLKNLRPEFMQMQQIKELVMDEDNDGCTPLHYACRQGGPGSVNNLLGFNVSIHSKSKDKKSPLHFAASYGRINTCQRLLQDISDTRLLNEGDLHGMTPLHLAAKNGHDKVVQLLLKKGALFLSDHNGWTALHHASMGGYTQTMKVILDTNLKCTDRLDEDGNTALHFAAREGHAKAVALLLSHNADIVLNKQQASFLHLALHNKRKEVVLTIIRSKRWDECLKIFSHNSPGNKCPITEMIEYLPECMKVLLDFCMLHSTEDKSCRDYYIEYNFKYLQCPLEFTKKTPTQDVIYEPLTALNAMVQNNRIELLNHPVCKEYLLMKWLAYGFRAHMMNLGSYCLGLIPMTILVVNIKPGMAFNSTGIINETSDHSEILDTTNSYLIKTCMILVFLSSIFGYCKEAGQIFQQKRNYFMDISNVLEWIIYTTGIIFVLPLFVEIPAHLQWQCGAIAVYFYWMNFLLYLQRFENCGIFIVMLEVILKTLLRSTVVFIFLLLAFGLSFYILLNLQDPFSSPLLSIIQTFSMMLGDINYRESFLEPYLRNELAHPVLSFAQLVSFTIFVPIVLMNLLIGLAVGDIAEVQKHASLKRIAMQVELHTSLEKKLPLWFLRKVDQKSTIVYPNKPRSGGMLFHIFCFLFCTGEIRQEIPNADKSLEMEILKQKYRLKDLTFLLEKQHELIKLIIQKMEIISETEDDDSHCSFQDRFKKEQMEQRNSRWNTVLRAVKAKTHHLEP
T5 sequence (Q8NER1 whole entry): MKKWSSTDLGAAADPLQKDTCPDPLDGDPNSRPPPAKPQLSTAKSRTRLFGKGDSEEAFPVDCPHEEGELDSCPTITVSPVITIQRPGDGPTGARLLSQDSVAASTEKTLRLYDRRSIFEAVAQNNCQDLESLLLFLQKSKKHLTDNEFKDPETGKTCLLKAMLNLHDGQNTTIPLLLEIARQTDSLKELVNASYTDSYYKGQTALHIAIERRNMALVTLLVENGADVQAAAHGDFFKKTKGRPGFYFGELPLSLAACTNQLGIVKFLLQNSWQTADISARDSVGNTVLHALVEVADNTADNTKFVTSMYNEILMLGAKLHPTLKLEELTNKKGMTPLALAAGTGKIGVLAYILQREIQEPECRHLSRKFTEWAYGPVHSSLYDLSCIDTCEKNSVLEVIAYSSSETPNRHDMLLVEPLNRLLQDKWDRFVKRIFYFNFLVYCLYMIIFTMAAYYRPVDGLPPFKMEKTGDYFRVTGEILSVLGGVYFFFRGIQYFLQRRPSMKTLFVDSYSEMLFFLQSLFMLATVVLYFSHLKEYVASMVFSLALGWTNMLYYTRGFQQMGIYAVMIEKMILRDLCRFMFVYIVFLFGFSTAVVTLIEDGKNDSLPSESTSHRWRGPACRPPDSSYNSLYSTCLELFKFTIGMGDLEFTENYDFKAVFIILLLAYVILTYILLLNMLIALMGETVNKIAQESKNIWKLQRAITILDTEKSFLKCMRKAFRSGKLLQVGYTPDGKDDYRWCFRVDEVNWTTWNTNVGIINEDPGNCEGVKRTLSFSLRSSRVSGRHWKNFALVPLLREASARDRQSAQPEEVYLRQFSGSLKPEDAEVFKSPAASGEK
T3 sequence (Q7Z2W7 whole entry): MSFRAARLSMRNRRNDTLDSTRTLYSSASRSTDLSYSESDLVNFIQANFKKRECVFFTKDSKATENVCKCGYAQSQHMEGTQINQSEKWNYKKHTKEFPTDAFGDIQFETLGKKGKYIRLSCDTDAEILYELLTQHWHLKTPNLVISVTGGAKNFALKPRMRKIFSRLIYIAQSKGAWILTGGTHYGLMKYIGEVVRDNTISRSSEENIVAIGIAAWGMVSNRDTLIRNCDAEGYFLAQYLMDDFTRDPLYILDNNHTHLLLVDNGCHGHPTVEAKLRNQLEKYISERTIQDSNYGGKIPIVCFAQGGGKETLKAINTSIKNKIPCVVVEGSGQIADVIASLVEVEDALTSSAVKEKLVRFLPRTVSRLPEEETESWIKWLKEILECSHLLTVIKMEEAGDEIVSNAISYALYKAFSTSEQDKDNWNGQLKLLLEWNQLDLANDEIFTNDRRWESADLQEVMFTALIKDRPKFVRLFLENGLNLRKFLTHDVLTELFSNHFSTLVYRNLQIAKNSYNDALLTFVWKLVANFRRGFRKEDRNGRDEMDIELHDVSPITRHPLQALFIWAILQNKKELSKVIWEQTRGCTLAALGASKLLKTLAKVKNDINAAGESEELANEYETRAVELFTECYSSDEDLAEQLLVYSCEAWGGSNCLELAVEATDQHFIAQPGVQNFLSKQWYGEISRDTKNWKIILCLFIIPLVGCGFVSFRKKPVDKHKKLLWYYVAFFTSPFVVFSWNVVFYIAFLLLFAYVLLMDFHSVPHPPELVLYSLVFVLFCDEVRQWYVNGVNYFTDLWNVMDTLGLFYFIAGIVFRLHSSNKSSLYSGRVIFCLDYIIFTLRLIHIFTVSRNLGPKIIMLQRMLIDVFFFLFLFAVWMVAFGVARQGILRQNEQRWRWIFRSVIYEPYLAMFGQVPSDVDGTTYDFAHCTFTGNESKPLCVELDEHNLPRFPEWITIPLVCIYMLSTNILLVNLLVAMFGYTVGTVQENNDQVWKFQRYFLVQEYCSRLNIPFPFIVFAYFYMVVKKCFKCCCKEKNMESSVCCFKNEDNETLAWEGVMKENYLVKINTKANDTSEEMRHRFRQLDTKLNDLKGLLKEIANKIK

For `CC(C)(C)NC[C@H](O)COc1nsnc1N1CCOCC1` [timolol, reference compound], the “IOP levels in MB-treated eyes, topical application” value in test [1] was “significantly lowered IOP levels”. Further, the “IOP after topical administration” value in [2] (mouse model of ocular hypertension, compounds 1 μM and 10 μM, timolol 0.5%, FIG. 1) is given as “lowered the IOP”. Besides, in [2] (mouse model of ocular hypertension, topical, compounds 1 μM and 10 μM, timolol 0.5%), the “protection of RGCs” value is reported as “protected RGCs”.
Turning to `Cc1c(C(=O)Nc2cccc(C(F)(F)F)c2)cc(-c2ccccc2)n1CCCN1CCOCC1` [HC067047, reference compound], the “IOP in hypertensive mouse eyes” value in test [3] is “lowered IOP”. Besides, the “IOP levels in MB-treated eyes, intraperitoneal injection” value in [2] (FIG. 2 right panel, intraperitoneal) is reported as “significantly lowered IOP levels”.
`CNCC1(COc2ccc(C#N)c(F)c2)CN(S(=O)(=O)c2ccc(Cl)cc2Cl)C1` [Compound 16, 4-((1-((2,4-Dichlorophenyl)sulfonyl)-3-((methylamino)methyl)azetidin-3-yl)methoxy)-2-fluorobenzonitrile hydrochloride]: the IC50 on human TRPV4 was 0.0006 µM; at human TRPA1, 20.7 µM; at TRPM8 it was 17.8 µM; at TRPV3, over 100 µM; on TRPV1, 6 µM. Also, the “selectivity for TRPV4 versus TRPA1, TRPM8, TRPV3 and TRPV1” value at human TRPV4 (comparison of IC50 values) is recorded as “substantially more selective for TRPV4”.
Consider `CCN[C@H]1C[C@H](C)S(=O)(=O)c2sc(S(N)(=O)=O)cc21` [dorzolamide HCl], for which, in [4], the IOP lowering is listed as 3.8-5.0 mm Hg.
For the compound `N#Cc1ccc(OCC2(CNCCO)CN(S(=O)(=O)c3ccc(Cl)cc3Cl)C2)cc1F` [Compound 17, 4-((1-((2,4-Dichlorophenyl)sulfonyl)-3-(((2-hydroxyethyl)amino)methyl)azetidin-3-yl)methoxy)-2-fluorobenzonitrile], the IC50 on human TRPV4 was 0.0002 to 0.0006 µM; at human TRPA1, over 35.5 µM; at TRPM8, 25.4 µM; at TRPV3, over 50 µM; at TRPV1 it was 5.3 µM.
